From patent publication EP4512806A1, “MOLECULAR GLUE DEGRADERS AND USES THEREOF” (Mablink Bioscience, priority 2023, dated 2025)

Tests used:
[1] = tested on: BT-474; experiment: In vitro cytotoxicity assay (MTT); assay type: cell-based, human; details: 6 days incubation
Source text: (§1) Human cancer cell lines used in the present project were purchased from either the American Type Culture Collection (ATCC), The Leibniz Institute DSMZ German Collection of Microorganisms and Cell Cultures GmbH (DSMZ) or the European Collection of Authenticated Cell Cultures (ECACC). For use in experiments, cells were cultivated following good and established cell culture practices, following instructions from the original ATCC/DSMZ/ECACC supplier for cell culture media & supplement, cryopreservation, and subculturing procedures. Cells were incubated under a 5% CO2 atmosphere at 37°C for no longer than 2 months.
(§2) In vitro cytotoxicity of compounds of the disclosure was assessed on several cancerous human cell lines. Cells were plated in 96-well plates at an appropriate density depending on the cell line (between 1000 and 10 000 cells/well in 100µL of appropriate culture media) and incubated at 37°C for 24 hours. Serial dilutions of the tested compound previously dissolved in culture media (50µL) were added, and incubation was carried at 37°C out for 6 days. MTT (5mg/mL in PBS, 20µL, Sigma-Aldrich) was added into the wells, and incubation was continued for 1 to 4 hours at 37°C. Culture media was then carefully removed, and well content was homogeneously dissolved with acidified isopropanol. Absorbance values were measured on a microplate reader using a wavelength of 570 nm (with a reference wavelength of 690 nm). The IC50 concentration values compared to untreated control cells were determined using inhibition dose response curve fitting (GraphPad Prism 9). Exatecan mesylate (cat#HY-13631A) and CR8 (CAS# 294646-77-8; cat#HY-18340) were purchased from MedChemExpress (China).

[2] = tested on: JIMT-1; experiment: In vitro cytotoxicity assay (MTT); assay type: cell-based, human; details: 6 days incubation
Source text: as §1, §2

[3] = tested on: MDA-MB-231; experiment: In vitro cytotoxicity assay (MTT); assay type: cell-based, human; details: 6 days incubation
Source text: as §1, §2

[4] = tested on: MDA-MB-453; experiment: In vitro cytotoxicity assay (MTT); assay type: cell-based, human; details: 6 days incubation
Source text: as §1, §2

[5] = tested on: NCI-N87; experiment: In vitro cytotoxicity assay (MTT); assay type: cell-based, human; details: 6 days incubation
Source text: as §1, §2

[6] = tested on: SKBR-3; experiment: In vitro cytotoxicity assay (MTT); assay type: cell-based, human; details: 6 days incubation
Source text: as §1, §2

[7] = molecular target: T1, CycK (Homo sapiens, UniProt O75909); experiment: CycK protein quantification by Western Blot in JIMT-1 cells; assay type: cell-based; details: 2h treatment, 10nM
T1 construct: endogenous in cells; host or cells: JIMT-1
T1 sequence (O75909 whole entry): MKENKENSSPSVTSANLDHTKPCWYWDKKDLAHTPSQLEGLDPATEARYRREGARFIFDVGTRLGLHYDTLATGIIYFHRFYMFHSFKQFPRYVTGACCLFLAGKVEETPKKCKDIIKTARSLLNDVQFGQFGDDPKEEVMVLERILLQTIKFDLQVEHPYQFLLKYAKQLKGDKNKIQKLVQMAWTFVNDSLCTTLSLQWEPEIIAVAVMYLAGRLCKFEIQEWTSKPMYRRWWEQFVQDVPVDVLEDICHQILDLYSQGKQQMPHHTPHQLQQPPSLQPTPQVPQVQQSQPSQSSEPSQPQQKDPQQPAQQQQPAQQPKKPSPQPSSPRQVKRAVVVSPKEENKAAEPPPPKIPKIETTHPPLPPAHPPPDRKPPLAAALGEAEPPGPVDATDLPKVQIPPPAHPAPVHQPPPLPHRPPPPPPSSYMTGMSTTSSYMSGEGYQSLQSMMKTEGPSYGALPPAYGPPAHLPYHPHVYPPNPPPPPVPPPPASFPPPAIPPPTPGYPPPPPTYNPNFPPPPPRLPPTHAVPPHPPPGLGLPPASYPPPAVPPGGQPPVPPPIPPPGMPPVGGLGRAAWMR
T1 sequence (Q9NYV4 whole entry partner): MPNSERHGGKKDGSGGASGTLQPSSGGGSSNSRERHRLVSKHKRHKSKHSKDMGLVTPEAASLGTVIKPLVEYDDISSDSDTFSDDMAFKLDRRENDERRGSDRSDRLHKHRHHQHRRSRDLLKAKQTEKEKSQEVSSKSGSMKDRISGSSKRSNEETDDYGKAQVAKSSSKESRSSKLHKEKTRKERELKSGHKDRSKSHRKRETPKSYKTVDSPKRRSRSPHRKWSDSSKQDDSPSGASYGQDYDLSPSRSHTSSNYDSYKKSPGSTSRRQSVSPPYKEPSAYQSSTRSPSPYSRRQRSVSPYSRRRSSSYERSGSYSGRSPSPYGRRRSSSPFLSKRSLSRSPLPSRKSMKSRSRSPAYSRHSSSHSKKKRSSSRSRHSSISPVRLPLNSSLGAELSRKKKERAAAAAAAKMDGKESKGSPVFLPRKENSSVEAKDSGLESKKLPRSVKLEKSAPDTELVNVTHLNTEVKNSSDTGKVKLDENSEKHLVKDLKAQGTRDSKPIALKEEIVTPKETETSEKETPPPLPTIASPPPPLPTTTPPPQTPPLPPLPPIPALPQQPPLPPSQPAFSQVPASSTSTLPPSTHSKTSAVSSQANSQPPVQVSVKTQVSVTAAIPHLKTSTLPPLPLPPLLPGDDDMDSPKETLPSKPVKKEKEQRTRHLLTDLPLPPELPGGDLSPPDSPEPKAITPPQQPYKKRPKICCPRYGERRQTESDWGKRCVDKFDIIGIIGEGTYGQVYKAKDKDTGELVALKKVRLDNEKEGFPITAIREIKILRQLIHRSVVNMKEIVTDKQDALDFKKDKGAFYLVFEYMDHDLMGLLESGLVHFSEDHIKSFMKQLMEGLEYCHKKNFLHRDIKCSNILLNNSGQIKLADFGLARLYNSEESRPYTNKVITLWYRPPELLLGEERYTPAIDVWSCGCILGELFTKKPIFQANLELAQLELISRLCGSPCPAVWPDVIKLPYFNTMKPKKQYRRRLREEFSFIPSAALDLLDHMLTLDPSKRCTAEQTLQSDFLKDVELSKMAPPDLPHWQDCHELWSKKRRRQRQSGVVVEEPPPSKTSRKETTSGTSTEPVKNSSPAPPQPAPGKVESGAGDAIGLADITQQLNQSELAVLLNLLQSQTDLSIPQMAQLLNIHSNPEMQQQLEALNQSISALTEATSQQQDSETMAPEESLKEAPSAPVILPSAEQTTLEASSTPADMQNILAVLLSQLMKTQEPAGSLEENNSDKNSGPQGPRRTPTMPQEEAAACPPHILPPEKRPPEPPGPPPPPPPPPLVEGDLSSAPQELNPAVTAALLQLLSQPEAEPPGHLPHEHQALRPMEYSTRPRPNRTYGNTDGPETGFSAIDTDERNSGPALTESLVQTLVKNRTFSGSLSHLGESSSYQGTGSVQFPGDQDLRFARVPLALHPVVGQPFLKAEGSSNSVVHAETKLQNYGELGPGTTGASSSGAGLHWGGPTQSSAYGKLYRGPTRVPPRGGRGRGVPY
T1 sequence (Q16531 whole entry partner): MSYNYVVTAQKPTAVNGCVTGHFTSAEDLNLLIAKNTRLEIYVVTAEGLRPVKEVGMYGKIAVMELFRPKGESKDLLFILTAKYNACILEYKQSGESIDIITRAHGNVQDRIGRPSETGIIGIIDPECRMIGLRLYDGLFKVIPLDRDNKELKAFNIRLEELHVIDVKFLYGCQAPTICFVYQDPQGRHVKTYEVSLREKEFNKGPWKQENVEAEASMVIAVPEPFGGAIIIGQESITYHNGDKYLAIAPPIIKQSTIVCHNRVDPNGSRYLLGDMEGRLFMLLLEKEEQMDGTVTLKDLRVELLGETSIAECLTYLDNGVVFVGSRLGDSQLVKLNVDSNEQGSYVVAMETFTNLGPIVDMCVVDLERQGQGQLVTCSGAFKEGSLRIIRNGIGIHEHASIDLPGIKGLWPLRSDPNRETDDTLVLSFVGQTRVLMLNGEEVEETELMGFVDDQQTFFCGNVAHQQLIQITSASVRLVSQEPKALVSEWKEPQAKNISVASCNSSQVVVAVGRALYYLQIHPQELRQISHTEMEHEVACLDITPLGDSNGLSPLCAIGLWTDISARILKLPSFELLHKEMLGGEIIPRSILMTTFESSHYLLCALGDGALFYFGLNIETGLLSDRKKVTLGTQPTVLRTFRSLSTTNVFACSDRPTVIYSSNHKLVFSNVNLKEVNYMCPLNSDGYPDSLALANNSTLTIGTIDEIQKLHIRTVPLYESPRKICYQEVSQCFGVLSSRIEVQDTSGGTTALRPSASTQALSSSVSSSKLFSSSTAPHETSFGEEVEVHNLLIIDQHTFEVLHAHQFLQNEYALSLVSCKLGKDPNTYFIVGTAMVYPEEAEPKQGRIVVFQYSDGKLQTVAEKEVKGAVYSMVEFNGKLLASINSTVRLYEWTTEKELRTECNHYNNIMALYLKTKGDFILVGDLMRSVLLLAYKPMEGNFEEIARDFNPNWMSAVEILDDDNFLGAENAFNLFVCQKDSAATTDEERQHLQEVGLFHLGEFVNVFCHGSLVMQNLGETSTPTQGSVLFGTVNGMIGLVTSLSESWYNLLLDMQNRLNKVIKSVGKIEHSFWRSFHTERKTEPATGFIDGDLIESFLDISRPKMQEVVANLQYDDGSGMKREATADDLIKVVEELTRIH
Procedure: 1×10^6 JIMT-1 cells were plated in 3mL of DMEM/FBS 90:10 (v/v) in 6-well plates and incubated overnight. Cells were treated with the compound 2384 of the invention with or without the proteasome inhibitor MG-132 (MedChemExpress, Cat HY-13259) for 2h. Cells were harvested, and protein were extracted using complete RIPA buffer (RIPA buffer, 1 mM DTT, 1M NaF, 100 mM sodium orthovanadate, phosphatase inhibitor buffer and protease inhibitors) for 1 hour on ice. Lysate were centrifuged 15min at 12 000g at 4°C. and proteins were mixed with 4x Laemmli Sample Buffer (Bio-Rad), heated at 95 °C for 5 mins and separated by SDS PAGE (PROTEAN TGX Stain-Free Gels, Bio-Rad). Proteins were then transferred onto PVDF membrane (iBlot®2 PVDF stacks, Invitrogen) using the iBlot2 device (Invitrogen) and blocked with TBS buffer (Intercept® Blocking Buffer, LI-COR Biosciences). Primary antibodies were incubated overnight at 4°C and secondary antibodies (IRDye Infrared Dyes from LI-COR Biosciences) 1 hour at room temperature. Used primary antibody were: anti-CycK (cat#A301-939A, Bethyl Laboratories, dil. 1:1000) and anti-β-actin (cat#A5441, Sigma-Aldrich, dil. 1:5000). Membranes were scanned using a c500 Imaging System (Azure Biosystems) and densitometric quantification were performed using imaged software. Protein levels were normalized against β-actin.

[8] = tested on: JIMT-1 cells; experiment: Cell cycle arrest assessment (propidium iodide, flow cytometry); assay type: cell-based, human
Procedure: 1×10^6 JIMT-1 cells were plated in 3mL of DMEM/FBS 90:10 (v/v) in 6-well plates and incubated overnight. Cells were treated with the compound 2384 of the invention or with CR8 for 24h. Cells were then harvested and washed three times with PBS. Cells were suspended into 300µL of propidium iodide working solution (0.05mg/mL) and incubated for 45 minutes at 4°C in the dark. Analysis was performed using a BD Fortessa flow cytometer controlled by BD FACSDiva software (BD Biosciences) and data were analyzed using FlowJo software (BD Bioscience).

[9] = tested on: panel of human cancer cell lines; experiment: In vitro cytotoxicity assay (MTT), panel of cell lines; assay type: cell-based; details: panel of human cancer cell lines, in words
Source text: as §1, §2

CC[C@H](CO)Nc1nc(NCc2ccc(-c3ccccn3)cc2)c2ncn(C(C)C)c2n1 [CR8, reference compound]
IC50 [1]: 18.4 nM | IC50 [2]: 25.2 nM | IC50 [3]: 10.4 nM | IC50 [4]: 40.3 nM | IC50 [5]: 62.2 nM | IC50 [6]: 30.6 nM | CycK degradation [7]: no CycK was observed | cell cycle analysis (propidium iodide) ([8]; 24h, 50 nM): arrest in G2/M phase | cell cycle analysis (propidium iodide) ([8]; 24h, 2, 5, and 10 nM): no impact on cell cycle | in vitro cytotoxic potency [9]: high nanomolar range
